Measurements reported in publication PMC6321168, “Comparative Study on Excretive Characterization of Main Components in Herb Pair Notoginseng-Safflower and Single Herbs by LC–MS/MS” (Pharmaceutics, 2018).

Test: Urinary excretion study in rats after oral NS, SF or CNS (LC–MS/MS)
Format: in vivo
Conditions: for concentration at 2 h / concentration at 4 h / concentration at 8 h / concentration at 12 h / concentration at 24 h / concentration at 36 h / concentration at 48 h / concentration at 72 h / concentration at 96 h / concentration at 120 h / concentration at 6 h: male, Sprague Dawley, rat, urine, oral; for Accumulative excretion amount / Accumulative excretion percentage / Excretion amount: rat urine
Method: The animal room was set at constant temperature of 20 ± 2 °C with humidity of 50 ± 20% and 12/12 h light/dark cycle.
Eighteen male rats were fasted for 12 h before starting the experiment. The rats were divided into three groups at random (n = 6) and received NS (60 mg/kg), SF (50 mg/kg), and NS (60 mg/kg) + SF (50 mg/kg), respectively, by oral gavage. The rats were placed in separate metabolic cages. The urine samples were collected at 0–2, 2–4, 4–6, 6–8, 8–12, 12–24, 24–36, 36–48, 48–72, 72–96, and 96–120 h. The feces samples were collected at 0–4, 4–8, 8–12, 12–24, 24–36, 36–48, 48–72, 72–96, and 96–120 h. The urine volume was recorded and the dry feces were measured for each collection period. Samples were stored at −80 °C until analysis.
An aliquot of 200 μL urine sample was mixed with 10 μL of IS and evaporated to dryness with a ZLS-2 vacuum centrifugal concentrator (Herexi Co., Ltd., Changsha, Hunan, China). The residue was reconstituted in 100 μL of 50% methanol vortexed for 2 min and centrifuged at 12,000 rpm for 15 min. Finally, a 1 μL aliquot was injected for LC–MS analysis.
Ultra fast liquid chromatography (UFLC) analysis was performed using a Shimadzu UFLC system (DGU-20A3R Degasser; LC-20AD pump; SIL-20AXR Autosampler; CTO-20AC Column Oven) (Nakagyo-Ku, Koyoto, Japan). […] Because of the different endogenous substances in the urine and feces samples, different elution gradients were used to alleviate the matrix effects for the analytes.
The mass spectrometric detection was performed on an ABSciex 4500 Qtrap mass spectrometer (ABSciex, Foster City, CA, USA) equipped with a negative electrospray ionization (ESI) interface using multiple reaction monitoring (MRM). The MS parameters were optimized under the selected ion monitoring conditions as follows: curtain gas, 35 psi; ionspray voltage, 4500 V; turbo gas temperature, 450 °C; GS1, 45 psi; GS2, 45 psi. All data were acquired and analyzed by Analyst software (Versions 1.6.2) from ABSciex.
The accumulative excretion percentage was calculated for each analyte as follows. Excretion at time (t) = [concentration of the analyte (ng/mL) at t] × total urine (or feces) volume (mL) at t. The cumulative excretion up to time t (mg) was expressed as a percent (%) cumulative excretion by dividing by the total amount of the analyte ingested (mg): % Cumulative Excretion = 100 × (Σt excretiont) total ingested.

concentration at 2 h (60 mg/kg, oral NS 60 mg/kg, 2 h): 289 ± 689 ng/mL
concentration at 4 h (60 mg/kg, oral NS 60 mg/kg, 4 h): 91 ± 119 ng/mL
concentration at 8 h (60 mg/kg, oral NS 60 mg/kg, 8 h): 40 ± 26 ng/mL
concentration at 12 h (60 mg/kg, oral NS 60 mg/kg, 12 h): 33 ± 24 ng/mL
concentration at 24 h (60 mg/kg, oral NS 60 mg/kg, 24 h): 17 ± 34 ng/mL
concentration at 36 h (60 mg/kg, oral NS 60 mg/kg, 36 h): 15 ± 23 ng/mL
concentration at 48 h (60 mg/kg, oral NS 60 mg/kg, 48 h): 13 ± 24 ng/mL
concentration at 72 h (60 mg/kg, oral NS 60 mg/kg, 72 h): 17 ± 37 ng/mL
concentration at 96 h (60 mg/kg, oral NS 60 mg/kg, 96 h): 7 ± 13 ng/mL
concentration at 120 h (60 mg/kg, oral NS 60 mg/kg, 120 h): 4 ± 8 ng/mL
concentration at 2 h (oral CNS 110 mg/kg, 2 h): 86 ± 88 ng/mL
concentration at 4 h (oral CNS 110 mg/kg, 4 h): 70 ± 89 ng/mL
concentration at 6 h (oral CNS 110 mg/kg, 6 h): 39 ± 27 ng/mL
concentration at 8 h (oral CNS 110 mg/kg, 8 h): 41 ± 35 ng/mL
concentration at 12 h (oral CNS 110 mg/kg, 12 h): 35 ± 41 ng/mL
concentration at 24 h (oral CNS 110 mg/kg, 24 h): 369 ± 963 ng/mL
concentration at 36 h (oral CNS 110 mg/kg, 36 h): 24 ± 38 ng/mL
concentration at 48 h (oral CNS 110 mg/kg, 48 h): 6 ± 7 ng/mL
concentration at 72 h (oral CNS 110 mg/kg, 72 h): 5 ± 7 ng/mL
concentration at 96 h (oral CNS 110 mg/kg, 96 h): 3 ± 5 ng/mL
concentration at 120 h (oral CNS 110 mg/kg, 120 h): 4 ± 8 ng/mL
concentration at 6 h (oral NS 60 mg/kg, 6 h): 32 ± 30 ng/mL
Accumulative excretion amount (oral CNS 110 mg/kg, 2 h): 0.133 ± 0.062 µg
Accumulative excretion percentage (oral CNS 110 mg/kg, 2 h): 0.028±0.013%
Accumulative excretion amount (oral CNS 110 mg/kg, 4 h): 0.193 ± 0.131 µg
Accumulative excretion percentage (oral CNS 110 mg/kg, 4 h): 0.041±0.028%
Excretion amount (oral CNS 110 mg/kg, 4 h): 0.100 ± 0.090 µg
Accumulative excretion amount (oral CNS 110 mg/kg, 6 h): 0.231 ± 0.118 µg
Accumulative excretion percentage (oral CNS 110 mg/kg, 6 h): 0.049± 0.025%
Excretion amount (oral CNS 110 mg/kg, 6 h): 0.064 ± 0.030 µg
Accumulative excretion amount (oral CNS 110 mg/kg, 8 h): 0.289 ± 0.121 µg
Accumulative excretion percentage (oral CNS 110 mg/kg, 8 h): 0.061±0.026%
Excretion amount (oral CNS 110 mg/kg, 8 h): 0.072 ± 0.033 µg
Accumulative excretion amount (oral CNS 110 mg/kg, 12 h): 0.324 ± 0.110 µg
Accumulative excretion percentage (oral CNS 110 mg/kg, 12 h): 0.069±0.023%
Excretion amount (oral CNS 110 mg/kg, 12 h): 0.035 ± 0.015 µg
Accumulative excretion amount (oral CNS 110 mg/kg, 24 h): 0.381 ± 0.153 µg
Accumulative excretion percentage (oral CNS 110 mg/kg, 24 h): 0.081±0.032%
Excretion amount (oral CNS 110 mg/kg, 24 h): 0.058 ± 0.054 µg
Accumulative excretion amount (oral CNS 110 mg/kg, 36 h): 0.411 ± 0.177 µg
Accumulative excretion percentage (oral CNS 110 mg/kg, 36 h): 0.087±0.037%
Excretion amount (oral CNS 110 mg/kg, 36 h): 0.030 ± 0.037 µg
Accumulative excretion amount (oral CNS 110 mg/kg, 48 h): 0.447 ± 0.206 µg
Accumulative excretion percentage (oral CNS 110 mg/kg, 48 h): 0.095±0.044%
Excretion amount (oral CNS 110 mg/kg, 48 h): 0.03 ± 0.038 µg
Accumulative excretion amount (oral CNS 110 mg/kg, 72 h): 0.460 ± 0.207 µg
Accumulative excretion percentage (oral CNS 110 mg/kg, 72 h): 0.097±0.044%
Excretion amount (oral CNS 110 mg/kg, 72 h): 0.013 ± 0.017 µg
Accumulative excretion amount (oral CNS 110 mg/kg, 96 h): 0.468 ± 0.217 µg
Accumulative excretion percentage (oral CNS 110 mg/kg, 96 h): 0.099±0.046%
Excretion amount (oral CNS 110 mg/kg, 96 h): 0.008 ± 0.012 µg
Accumulative excretion amount (oral CNS 110 mg/kg, 120 h): 0.472 ± 0.219 µg
Accumulative excretion percentage (oral CNS 110 mg/kg, 120 h): 0.100±0.046%
Excretion amount (oral CNS 110 mg/kg, 120 h): 0.004 ± 0.005 µg
Accumulative excretion amount (oral NS 60 mg/kg, 2 h): 0.304 ± 0.161 µg
Accumulative excretion percentage (oral NS 60 mg/kg, 2 h): 0.064±0.030%
Excretion amount (oral NS 60 mg/kg, 2 h): 0.304 ± 0.161 µg
Accumulative excretion amount (oral NS 60 mg/kg, 4 h): 0.390 ± 0.199 µg
Accumulative excretion percentage (oral NS 60 mg/kg, 4 h): 0.072±0.037%
Excretion amount (oral NS 60 mg/kg, 4 h): 0.129 ± 0.051 µg
Accumulative excretion amount (oral NS 60 mg/kg, 6 h): 0.509 ± 0.225 µg
Accumulative excretion percentage (oral NS 60 mg/kg, 6 h): 0.096±0.042%
Excretion amount (oral NS 60 mg/kg, 6 h): 0.143 ± 0.125 µg
Accumulative excretion amount (oral NS 60 mg/kg, 8 h): 0.625 ± 0.321 µg
Accumulative excretion percentage (oral NS 60 mg/kg, 8 h): 0.127±0.059%
Excretion amount (oral NS 60 mg/kg, 8 h): 0.173 ± 0.121 µg
Accumulative excretion amount (oral NS 60 mg/kg, 12 h): 0.721 ± 0.406 µg
Accumulative excretion percentage (oral NS 60 mg/kg, 12 h): 0.138±0.075%
Excretion amount (oral NS 60 mg/kg, 12 h): 0.096 ± 0.087 µg
Accumulative excretion amount (oral NS 60 mg/kg, 24 h): 0.745 ± 0.403 µg
Accumulative excretion percentage (oral NS 60 mg/kg, 24 h): 0.149±0.074%
Excretion amount (oral NS 60 mg/kg, 24 h): 0.024 ± 0.015 µg
Accumulative excretion amount (oral NS 60 mg/kg, 36 h): 0.782 ± 0.377 µg
Accumulative excretion percentage (oral NS 60 mg/kg, 36 h): 0.141±0.070%
Excretion amount (oral NS 60 mg/kg, 36 h): 0.044 ± 0.046 µg
Accumulative excretion amount (oral NS 60 mg/kg, 48 h): 0.802 ± 0.380 µg
Accumulative excretion percentage (oral NS 60 mg/kg, 48 h): 0.152±0.070%
Excretion amount (oral NS 60 mg/kg, 48 h): 0.020 ± 0.022 µg
Accumulative excretion amount (oral NS 60 mg/kg, 72 h): 0.809 ± 0.391 µg
Accumulative excretion percentage (oral NS 60 mg/kg, 72 h): 0.156±0.072%
Excretion amount (oral NS 60 mg/kg, 72 h): 0.007 ± 0.017 µg
Accumulative excretion amount (oral NS 60 mg/kg, 96 h): 0.814 ± 0.399 µg
Accumulative excretion percentage (oral NS 60 mg/kg, 96 h): 0.154±0.074%
Excretion amount (oral NS 60 mg/kg, 96 h): 0.005 ± 0.010 µg
Accumulative excretion amount (oral NS 60 mg/kg, 120 h): 0.819 ± 0.408 µg
Accumulative excretion percentage (oral NS 60 mg/kg, 120 h): 0.154±0.075%
Excretion amount (oral NS 60 mg/kg, 120 h): 0.004 ± 0.010 µg
Compound: CC(C)=CCC[C@](C)(O[C@@H]1O[C@H](CO)[C@@H](O)[C@H](O)[C@H]1O)[C@H]1CC[C@]2(C)[C@@H]1[C@H](O)C[C@@H]1[C@@]3(C)CC[C@H](O)C(C)(C)[C@@H]3[C@@H](O[C@@H]3O[C@H](CO)[C@@H](O)[C@H](O)[C@H]3O[C@@H]3O[C@@H](C)[C@H](O)[C@@H](O)[C@H]3O)C[C@]12C [ginsenoside Re]
